Among the data in patent US20050019825A9, “Common ligand mimics: pseudothiohydantoins” (priority 2002, published 2005) are inhibition values, retold here.

This experiment has as its target dihydrodipicolinate reductase (DHPR) (Escherichia coli, UniProt P04036). Kind of experiment: Screening of bi-ligands for DHPR (Example 25), kinetic assay at 340 nm. Format: biochemical. As to conditions: Cibacron Blue at 2.58 μM, Example 25; read-out: inhibition of DHPR, positive control. As for the experimental part: Screening of Biligands for Binding to Dihydrodipicolinate Reductase (DHPR)
This example describes the screening of bi-ligands having common ligand mimics for binding activity to dihydrodipicolinate reductase (DHPR).
Bi-ligands were produced by the methods of Examples 16 to 18. The bi-ligands were screened for binding to DHPR.
Stock solutions of each of the reagents were prepared in the following concentrations. Dilutions of the stock solutions were prepared prior to running the assay in the concentrations indicated below. Dilution of DHPR was prepared in 10 mM HEPES at a pH of 7.4. DHPS was not diluted and was stored in eppindorf tubes.
The L-ASA solution was prepared in the following manner. 180 μM stock solution of ASA was prepared. 100 μl of the ASA stock was mixed with 150 μl of concentrated NaHCO3 and 375 μl of […]. For use in the assay, 28.8 mM L-ASA equal 625 μl of the solution. The L-ASA stock solution was kept at a temperature of −20° C. After dilution, the pH of the 28.8 mM solution was checked and maintained between 1 and 2.
First, the DHPS reaction was monitored at 340 nm prior to and after addition of the inhibitor to detect background reaction with the inhibitor. The solution for background detection was a 945 μl solution containing 0.1 HEPES (pH 7.8), 1 mM pyruvate, 6 μM NADPH, 40 μM L-ASA, and 7 μl of 1 mg/ml DHPS at 25° C. in the volumes provided above. The sample solution was then mixed and incubated for 10 minutes. Next, 500 nM solutions of the inhibitors and enough DMSO to provide a final DMSO concentration of 5% were added. The solution was mixed and incubated for an additional 6 minutes.
In DHPR samples, 5 μl of the diluted DHPR enzyme were added. The sample was mixed for 20 seconds and then the reaction was run for 10 minutes. After a 50 second lag, the samples were read in a Cary spectrophotometer at 340 nm. Reading of the samples was continued until 300 seconds. Cuvette #1 contained the control reaction (no inhibitor), and cuvette #2 contained the positive control reaction in which Cibacron Blue at 2.58 μM was substituted for inhibitor to yield 70 to 80% inhibition. The substrate and NADPH or NAHD were kept near their Km values.

By inhibition is commonly meant the drop in the measured response relative to a control, in per cent.

Chain of dihydrodipicolinate reductase (DHPR) (P04036 whole entry): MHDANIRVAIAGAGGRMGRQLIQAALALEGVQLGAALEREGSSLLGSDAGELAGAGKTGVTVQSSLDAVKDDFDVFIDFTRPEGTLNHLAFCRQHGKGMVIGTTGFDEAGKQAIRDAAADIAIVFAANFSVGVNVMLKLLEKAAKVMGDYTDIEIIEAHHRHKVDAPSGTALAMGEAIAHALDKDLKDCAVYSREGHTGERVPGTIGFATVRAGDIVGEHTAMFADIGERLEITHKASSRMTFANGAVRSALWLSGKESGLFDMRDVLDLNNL

In the case of `Nc1c(S(=O)(=O)O)cc(Nc2ccc(Nc3nc(Cl)nc(Nc4ccccc4S(=O)(=O)O)n3)c(S(=O)(=O)O)c2)c2c1C(=O)c1ccccc1C2=O` [Cibacron Blue, reference compound], the inhibition at 2.58 µM fell in the range of 70 to 80%.
